Consider 16 molecules from ChEMBL document CHEMBL4251666, “Quest for Efficacious Next-Generation Taxoid Anticancer Agents and Their Tumor-Targeted Delivery” (J Nat Prod, 2018).

pIC50: −log10 of the molar value.

Assay [1] deals with MCF7. Nature of the assay: Cytotoxicity against human paclitaxel-resistant MCF7 cells after 72 hrs by MTT assay. It is filed as functional, cell-based. To be noted: MCF7, 72 h.
The test system of another assay is HCT-116. Put plainly: Cytotoxicity against CD133 positive human HCT116 cells. It is filed as functional, cell-based.
Assay [2] is described as follows: Cytotoxicity against human MDA435/LCC6 cells. The assay is classed as functional, cell-based. The following applies: MDA-435/LCC6.
For the next assay, the system named is A121. Put plainly: Cytotoxicity against human A121 cells. It is filed as functional, cell-based.
In the next assay the test system is A549. Put plainly: Cytotoxicity against human A549 cells. It is filed as functional, cell-based.
The test system of assay [3] is MCF7. Put plainly: Cytotoxicity against human MCF7 cells. It is filed as functional, cell-based.
Assay [4] can be described thus: Cytotoxicity against human CD133/CD44 positive PPT2 cells assessed as cell death at 0.01 to 10 uM after 72 hrs by MTT assay. It is filed as functional. A general note: Tetrazolium assays rely on reduction of a dye to a coloured formazan, in cell work by metabolically active cells.
Assay [5] in a line: Cytotoxicity against human CD133/CD44 positive PC3MM2 cells assessed as cell death at 0.01 to 10 uM after 72 hrs by MTT assay. It is filed as functional.

In general, pIC50 refers to the negative decadic logarithm of the IC50, by convention in mol/L. With `CC(=O)O[C@H]1C(=O)[C@@]2(C)[C@H]([C@H](OC(=O)c3ccccc3)[C@]34OC(=O)O[C@H]3[C@H](OC(=O)[C@H](O)[C@H](C=C(C)C)NC(=O)OC(C)(C)C)C(C)=C1C4(C)C)[C@]1(OC(C)=O)CO[C@@H]1C[C@@H]2O`, the pIC50 in the assay with MCF7 [1] is 7.18. In the assay with MCF7 [1], `CCC(=O)O[C@H]1C(=O)[C@@]2(C)[C@H]([C@H](OC(=O)c3cccc(OC)c3)[C@]3(O)C[C@H](OC(=O)[C@H](O)[C@H](C=C(C)C)NC(=O)OC(C)(C)C)C(C)=C1C3(C)C)[C@]1(OC(C)=O)CO[C@@H]1C[C@@H]2O` showed a pIC50 of 7.66. Regarding `COc1cccc2c1C(=O)c1c(O)c3c(c(O)c1C2=O)C[C@@](O)(C(=O)CO)C[C@@H]3O[C@H]1C[C@H](N)[C@H](O)[C@H](C)O1` [DOXORUBICIN], the pIC50 in the assay on HCT-116 is 7.11. For the molecule `CC(=O)O[C@H]1C(=O)[C@@]2(C)[C@H]([C@@H]3OC(=O)c4ccccc4OC/C=C/CC[C@H](NC(=O)OC(C)(C)C)[C@@H](O)C(=O)O[C@H]4C[C@]3(O)C(C)(C)C1=C4C)[C@]1(OC(C)=O)CO[C@@H]1C[C@@H]2O`, the pIC50 in assay [2] was 6.41. For `CC(=O)O[C@H]1C(=O)[C@@]2(C)[C@H]([C@H](OC(=O)C=C(C)C)[C@]3(O)C[C@H](OC(=O)[C@H](O)[C@H](C=C(C)C)NC(=O)OC(C)(C)C)C(C)=C1C3(C)C)[C@]1(OC(C)=O)CO[C@@H]1C[C@@H]2O`, the pIC50 in the assay on A121, with A549 and with MCF7 [3] was 9.05 in each case.

Molecule `CC[C@@]1(O)C(=O)OCc2c1cc1n(c2=O)Cc2cc3c(CN(C)C)c(O)ccc3nc2-1` [TOPOTECAN] gave a pIC50 in the assay on HCT-116 of 6.35. For `CO[C@]12C=C[C@](C)(O1)[C@@H](OC(=O)/C=C/c1cn(C)cn1)C[C@H]1C(C)=CC[C@H](C(C)C)[C@H]1/C=C\2CO[C@@H]1OC[C@@H](O)[C@@H](O)[C@@H]1OC(C)=O` [ELEUTHEROBIN], the Activity in assay [4] and in assay [5] was 60% each time. Molecule `CC(=O)O[C@@]12CO[C@@H]1C[C@H](O)[C@@]1(C)C(=O)[C@H](OC(=O)N(C)C)C3=C(C)[C@@H](OC(=O)[C@H](O)[C@H](C=C(C)C)NC(=O)OC(C)(C)C)C[C@@](O)([C@@H](OC(=O)c4ccccc4)[C@H]21)C3(C)C` had a pIC50 in the assay with HCT-116 of 9.08. In the assay with MCF7 [1], `CC(=O)O[C@@]12CO[C@@H]1C[C@H](O)[C@@]1(C)C(=O)[C@H](OC(=O)C3CC3)C3=C(C)[C@@H](OC(=O)[C@H](O)[C@H](C=C(C)C)NC(=O)OC(C)(C)C)C[C@@](O)([C@@H](OC(=O)c4cccc(OC(F)(F)F)c4)[C@H]21)C3(C)C` gave a negative-log IC50 (pIC50) of 7.46. As to `CC(=O)O[C@@]12CO[C@@H]1C[C@H](O)[C@@]1(C)C(=O)[C@H](OC(=O)C3CC3)C3=C(C)[C@@H](OC(=O)[C@H](O)[C@H](C=C(C)C)NC(=O)OC(C)(C)C)C[C@@](O)([C@@H](OC(=O)c4ccccc4)[C@H]21)C3(C)C`, the pIC50 in the assay with HCT-116 was 9.55; in the assay with MCF7 [1] it was 7.09.

In turn, `CC(=O)O[C@H]1C(=O)[C@@]2(C)[C@H]([C@H](OC(=O)c3ccccc3)[C@]3(O)C[C@H](OC(=O)[C@H](O)[C@@H](NC(=O)c4ccccc4)c4ccccc4)C(C)=C1C3(C)C)[C@]1(OC(C)=O)CO[C@@H]1C[C@@H]2O` [PACLITAXEL] gave a pIC50 in the assay with HCT-116 of 7.47. In turn, `CC(=O)O[C@H]1C(=O)[C@@]2(C)[C@H]([C@H](OC(=O)c3cccc(OC(F)(F)F)c3)[C@]3(O)C[C@H](OC(=O)[C@H](O)[C@H](C=C(C)C)NC(=O)OC(C)(C)C)C(C)=C1C3(C)C)[C@]1(OC(C)=O)CO[C@@H]1C[C@@H]2O` showed a pIC50 in the assay with MCF7 [1] of 7.72. The same measure, in the same setting: for `CC(=O)O[C@@]12CO[C@@H]1C[C@H](O)[C@@]1(C)C(=O)[C@H](OC(=O)N(C)C)C3=C(C)[C@@H](OC(=O)[C@H](O)[C@H](C=C(C)C)NC(=O)OC(C)(C)C)C[C@@](O)([C@@H](OC(=O)c4cccc(OC(F)(F)F)c4)[C@H]21)C3(C)C` the value was 7.50. In the assay with HCT-116, `CN(Cc1cnc2nc(N)nc(N)c2n1)c1ccc(C(=O)N[C@@H](CCC(=O)O)C(=O)O)cc1` [METHOTREXATE] gave a negative logarithm of the IC50 (pIC50) of 7.49.

As for `CC(=O)O[C@@]12CO[C@@H]1C[C@H](O)[C@@]1(C)C(=O)[C@H](OC(=O)N(C)C)C3=C(C)[C@@H](OC(=O)[C@H](O)[C@H](C=C(F)F)NC(=O)OC(C)(C)C)C[C@@](O)([C@@H](OC(=O)c4ccccc4)[C@H]21)C3(C)C`, in the assay on HCT-116, the pIC50 is 9.85. Consider `CC(=O)O[C@@]12CO[C@@H]1C[C@H](O)[C@@]1(C)C(=O)[C@H](OC(=O)N(C)C)C3=C(C)[C@@H](OC(=O)[C@H](O)[C@H](C=C(C)C)NC(=O)OC(C)(C)C)C[C@@](O)([C@@H](OC(=O)c4cccc(C)c4)[C@H]21)C3(C)C`, for which, in the assay on HCT-116, the pIC50 is 9.62.
